Source: patent US11771711B2, “Substituted pyridines as DNMT1 inhibitors” (GlaxoSmithKline Intellectual Property Development Limited, priority 2021, dated 2023)
≈ marks a conversion by molar mass, not a printed value.

Experiments:
[1] = target: Full-length human DNMT1 (Homo sapiens (Human), UniProt P26358); assay: DNMT1 Scintillation Proximity Assay (SPA) - Assay A; type: biochemical; details: footnote a: DNMT1 full length
Description: DNMT1 Scintillation Proximity Assay (SPA)—Assay A (Full-Length Human DNMT1)
This assay used Scintillation Proximity technology in a signal increase format to evaluate the potency of compounds. Full-length human DNMT1, hemi-methylated DNA duplex*, and tritiated SAM were utilized to monitor activity. Assay plate creation consisted of the following parameters: 500 nL of an 11 pt, 3-fold serial dilution of compound was stamped into a 96 well Costar plate (#3884). Assay buffer mix was made on the day of assay consisting of: 20 mM Tris pH 7.5, 1 mM DTT, 1 mM EDTA, and 5% glycerol. A 2× enzyme mix was then prepared consisting of 30 nM DNMT1 protein (full length human DNMT, made in house) in assay buffer. The 2× substrate mix was made last, and consisted of 160 nM 40mer hemi-methylated DNA*, 0.48 μM ^3H-SAM, and 2.92 μM cold SAM in assay buffer (^3H-SAM is added last). The quench (1 mM SAH) was made in bulk and frozen at −20 until the time of use. Ten uL of the 2× substrate mix was added to the entire plate using a multichannel electronic pipette. Plate was shaken for at least 10s between additions to ensure mixing. Next, 20 uL of 2× quench mix was added to column 12 using a multichannel pipette (shake plate). Using a multichannel electronic pipette, 10 uL of 2× enzyme mix was added to the full plate starting with column […] (column 12 last to avoid pre-quench carryover). Plates were incubated on the shaker for 30 minutes with the plate covered. At the end of the incubation period, 20 uL of quench mix were added to all wells except column 12 (shake plate) followed by the addition of 20 uL of 3 mg/mL PerkinElmer PEI PVT SPA Beads (Cat. #RPNQ0097) diluted in DNAse free water and allowed to shake for at least 30 minutes. Plates were sealed with a clear seal and centrifuged at 500 rpm for 1 min. Plates were read on a MicroBeta (Perkin Elmer, read for ^3H (1 min/well).
Microsoft Excel was used to analyze the data up to Vi/Vo and GraFit was used to fit the data. Responses were normalized to the uninhibited (DMSO) and pre-quenched controls within each plate. Dose-response curves were analyzed using a three-parameter logistic fit with Ymin constrained to 0 and results were expressed as IC50 values.
Final assay conditions: 20 mM Tris (Hampton Research—HR-937-06), pH 7.5, 1 mM DTT (Invitrogen—P2325), 1 mM EDTA (Invitrogen—AM9260G), 5% Glycerol (Teknova—G1796), 0.02% Pluronic F127 (Life Technologies—P6866), 15 nM DNMT1 (full length human DNMT1—GSK made in-house), 240 nM ^3H-SAM (PerkinElmer—NET155H001MC), 1460 nM cold SAM (New England Biolabs—B9003S) and 80 nM 40-mer hemi-methylated DNA Oligonucleotide (Integrated DNA Technologies—custom), 1 mM SAH (Sigma A9384), and 1 mg/mL PEI PVT SPA Beads (Perkin Elmer RPNQ0097) resuspended in water.

[2] = physchem; details: FaSSIF buffer, pH 6.5, fassif, thermodynamic from solid
Description: Solubility of Solid Compounds in Fasted Simulated Intestinal Fluid
The solubility of solid compounds in Fasted Simulated Intestinal Fluid (FaSSIF) was determined at pH 6.5 after 4 hour equilibration at room temperature (using procedures described in Sou, T.; Bergström, C. A. S. Automated assays for thermodynamic (equilibrium) solubility determination. Drug Discovery Today: Technologies 2018, 27, 11-19). 1 ml of FaSSIF buffer (3 mM Sodium taurocholate, 0.75 mM lecithin in sodium phosphate buffer at pH6.5) was added to manually weighed 1 mg of solid compound in a 4 ml vial. The resulting suspension was shaken at 900 rpm for 4 hours at room temperature and then transferred to a Multiscreen HTS, 96-well solubility filter plate to separate the residual solid and the filtrate. Quantification of the compound concentration in the filtrate was performed by HPLC-UV using single point calibration of a known concentration of the compound in DMSO. […] The dynamic range of the assay was 1-1000 μg/ml.

[3] = target: Human truncated DNMT1(601-1600) (Homo sapiens (Human), UniProt P26358); assay: DNMT1 Scintillation Proximity Assay (SPA) - Assay B; type: biochemical; details: footnote b: DNMT1 truncate
Description: DNMT1 Scintillation Proximity Assay (SPA)—Assay B (Human Truncated DNMT1(601-1600))
This assay used Scintillation Proximity technology in a signal increase format to evaluate the potency of compounds. Human truncated DNMT1(601-1600), single hemi-methylated CpG site oligonucleotide, and Tritiated SAM were utilized to monitor activity. Assay plate creation consisted of the following parameters: 10 mM Compounds (11-point, 3-fold serial dilution) were stamped at 100 nL per well (100× in 100% DMSO) into a Griener white LV 384 well plate (#784075). Assay buffer mix was made on the day of assay consisting of: base buffer: (500 mM Hepes, ph 8, 1M MgCl2 made in advance, stored at room temp as a stock), 10% NP40-Surfact AMPS, 10% Ultrapure BSA 50 mg/ml, and 2M DTT (DL-Dithiolthreitol). The 2× enzyme mix was then prepared consisting of: DNMT1 protein (truncate human DNMT1—601-1600, made in house at 16.876 uM stock concentration) added to the assay buffer mix. […] Plates were read on a Viewlux (PerkinElmer, 613 nm emission filter, 300 sec dual-exposure, (10 min. total read time)).
The Abase database was used to analyze the data. […] Dose-response curves were analyzed using a four-parameter logistic fit and results were expressed as pIC50 values. […]

[4] = internal standards tested alongside in FaSSIF assay; cited from earlier work
[5] = Rat pharmacokinetic study (oral bioavailability); type: in vivo; details: blood, PO gavage vs 60 minute IV infusion, 5% DMA/15% Solutol
Description: Pharmacokinetic Studies: All studies were conducted in accordance with the GSK Policy on the Care, Welfare and Treatment of Laboratory Animals and were reviewed either by the Institutional Animal Care and Use Committee at GSK or by the ethical review process at the institution where the studies were performed. Pharmacokinetic studies for example 2 were conducted using non-fasted, Male Wistar Han rats, n=3/dose route and for reference compound 4, non-fasted male Sprague-Dawley rats, n=2/dose route in a non-crossover design. Compounds were prepared as solutions in 5% DMA/15% Solutol and administered as a 60 minute IV infusion and PO gavage. Blood samples were collected serially at multiple time points from pre-dose through 24 hours post dose and the analytes were quantified by LC/MS/MS. The percent bioavailability was calculated by comparison of the dose normalized Area Under the Curve (DNAUC) obtained from PO dosing with the DNAUC from the IV route [(PO DNAUC/IV DNAUC)*100].

Chain of Full-length human DNMT1 (P26358 whole entry): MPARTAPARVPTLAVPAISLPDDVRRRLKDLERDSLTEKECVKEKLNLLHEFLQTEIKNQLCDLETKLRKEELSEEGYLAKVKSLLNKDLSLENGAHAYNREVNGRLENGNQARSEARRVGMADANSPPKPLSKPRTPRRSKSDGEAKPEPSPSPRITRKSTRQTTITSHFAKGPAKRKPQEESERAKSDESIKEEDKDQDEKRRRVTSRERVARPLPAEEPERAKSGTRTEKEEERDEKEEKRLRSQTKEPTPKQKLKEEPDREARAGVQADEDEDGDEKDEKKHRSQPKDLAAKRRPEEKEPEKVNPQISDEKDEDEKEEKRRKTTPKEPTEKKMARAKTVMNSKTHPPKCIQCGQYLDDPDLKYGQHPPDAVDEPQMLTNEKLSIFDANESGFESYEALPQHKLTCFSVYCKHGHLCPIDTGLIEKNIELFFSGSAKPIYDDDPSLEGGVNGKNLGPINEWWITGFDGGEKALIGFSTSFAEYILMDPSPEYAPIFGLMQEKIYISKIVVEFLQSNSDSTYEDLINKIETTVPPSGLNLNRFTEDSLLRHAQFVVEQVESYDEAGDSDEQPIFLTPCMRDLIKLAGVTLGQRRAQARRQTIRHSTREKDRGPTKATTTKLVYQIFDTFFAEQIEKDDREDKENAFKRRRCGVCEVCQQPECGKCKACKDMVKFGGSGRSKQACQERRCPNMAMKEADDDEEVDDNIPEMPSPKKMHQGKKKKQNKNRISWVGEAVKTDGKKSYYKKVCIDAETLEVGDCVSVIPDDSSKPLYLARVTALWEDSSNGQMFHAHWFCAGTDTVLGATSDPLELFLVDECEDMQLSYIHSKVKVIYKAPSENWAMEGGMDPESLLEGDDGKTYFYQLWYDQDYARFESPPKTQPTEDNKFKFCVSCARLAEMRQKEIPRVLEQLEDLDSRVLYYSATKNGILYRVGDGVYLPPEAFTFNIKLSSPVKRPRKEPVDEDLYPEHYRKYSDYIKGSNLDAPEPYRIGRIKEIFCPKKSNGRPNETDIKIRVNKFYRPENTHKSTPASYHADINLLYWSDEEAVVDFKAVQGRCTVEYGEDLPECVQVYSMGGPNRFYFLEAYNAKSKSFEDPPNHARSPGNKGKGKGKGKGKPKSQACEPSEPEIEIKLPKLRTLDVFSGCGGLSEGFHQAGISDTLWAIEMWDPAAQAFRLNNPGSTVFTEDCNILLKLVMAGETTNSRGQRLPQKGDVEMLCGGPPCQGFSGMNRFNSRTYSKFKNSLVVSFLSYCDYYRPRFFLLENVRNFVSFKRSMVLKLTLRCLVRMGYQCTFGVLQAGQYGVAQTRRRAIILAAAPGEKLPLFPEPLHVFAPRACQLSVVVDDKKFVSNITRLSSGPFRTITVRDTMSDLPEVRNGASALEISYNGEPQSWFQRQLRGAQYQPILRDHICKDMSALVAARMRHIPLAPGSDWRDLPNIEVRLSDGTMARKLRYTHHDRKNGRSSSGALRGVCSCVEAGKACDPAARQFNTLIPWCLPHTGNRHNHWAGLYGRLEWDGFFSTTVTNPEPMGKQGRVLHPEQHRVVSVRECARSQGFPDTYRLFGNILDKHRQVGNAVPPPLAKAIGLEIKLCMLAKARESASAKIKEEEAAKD
Chain of Human truncated DNMT1(601-1600) (P26358 601-1600): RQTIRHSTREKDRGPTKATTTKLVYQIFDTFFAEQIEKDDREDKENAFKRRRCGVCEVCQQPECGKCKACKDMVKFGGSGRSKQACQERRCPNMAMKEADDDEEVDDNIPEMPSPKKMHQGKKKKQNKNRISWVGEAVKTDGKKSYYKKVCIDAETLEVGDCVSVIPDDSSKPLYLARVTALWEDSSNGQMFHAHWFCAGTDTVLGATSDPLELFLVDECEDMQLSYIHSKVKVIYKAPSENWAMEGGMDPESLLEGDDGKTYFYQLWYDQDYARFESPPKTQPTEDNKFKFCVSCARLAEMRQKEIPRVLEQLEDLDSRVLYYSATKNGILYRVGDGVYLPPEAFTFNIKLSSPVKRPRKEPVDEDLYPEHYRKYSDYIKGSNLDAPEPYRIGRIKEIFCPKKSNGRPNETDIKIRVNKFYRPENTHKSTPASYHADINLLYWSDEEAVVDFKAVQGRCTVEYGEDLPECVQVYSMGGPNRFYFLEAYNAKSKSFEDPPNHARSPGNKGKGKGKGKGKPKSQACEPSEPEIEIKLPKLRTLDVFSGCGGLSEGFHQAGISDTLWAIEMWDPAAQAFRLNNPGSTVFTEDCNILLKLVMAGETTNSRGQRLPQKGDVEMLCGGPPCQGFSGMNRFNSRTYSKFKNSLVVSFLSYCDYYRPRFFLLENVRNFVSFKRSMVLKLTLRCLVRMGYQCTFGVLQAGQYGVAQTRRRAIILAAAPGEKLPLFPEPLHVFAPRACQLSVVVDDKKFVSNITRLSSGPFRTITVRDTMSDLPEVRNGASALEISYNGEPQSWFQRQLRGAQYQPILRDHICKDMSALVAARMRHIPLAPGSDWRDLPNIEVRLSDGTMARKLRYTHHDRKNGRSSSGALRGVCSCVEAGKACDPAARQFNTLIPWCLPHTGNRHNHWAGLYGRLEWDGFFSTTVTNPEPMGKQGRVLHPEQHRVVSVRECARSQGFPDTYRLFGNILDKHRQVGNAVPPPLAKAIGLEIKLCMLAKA

Structure (SMILES)	IC50 [1] [nM]	solubility at 4 h [2] [µg/mL]	further results
CCc1c(C#N)c(SC(C(N)=O)c2ccc(OS(C)(=O)=O)cc2)nc(N(C)C)c1C#N (racemic) [Example 4, 4-(2-amino-1-((3,5-dicyano-6-(dimethylamino)-4-ethylpyridin-2-yl)thio)-2-oxoethyl)phenyl methanesulfonate]	107	< 1	
CCc1c(C#N)c(SC(C(N)=O)c2ccc(Cl)cc2)nc(N(C)C)c1C#N (stereo not drawn) [Reference compound 3]			IC50 [3]: 631 nM
CC(=O)CC(c1ccccc1)c1c(O)c2ccccc2oc1=O (stereo not drawn) [Warfarin]			known solubility of internal standards [4]: 140 µg/mL
CCc1c(C#N)c(SC(C(=O)NP(=O)(O)O)c2ccc(OS(C)(=O)=O)cc2)nc(N(C)C)c1C#N (stereo not drawn) [Example 3, (2-((3,5-dicyano-6-(dimethylamino)-4-ethylpyridin-2-yl)thio)-2-(4-((methylsulfonyl)oxy)phenyl)acetyl)phosphoramidic acid]	5210	> 1000	
CCc1c(C#N)c(S[C@@H](C(N)=O)c2ccc(OS(C)(=O)=O)cc2)nc(N(C)C)c1C#N [Example 2, (R)-4-(2-amino-1-((3,5-dicyano-6-(dimethylamino)-4-ethylpyridin-2-yl)thio)-2-oxoethyl)phenyl methanesulfonate]	54	1	bioavailability ([5]; non-fasted male Wistar Han rats, n=3/dose route): 40%

The next lines start with results.

IC50 [1] [nM]	solubility at 4 h [2] [µg/mL]	Structure (SMILES)	further results
156	2.7 (≈ 6.63 µM)	CCc1c(C#N)c(S[C@@H](C(N)=O)c2ccccc2)nc(N2CC[C@H](O)C2)c1C#N [Reference compound 2, reference compound]	
	< 1	CCc1c(C#N)c(S[C@@H](C(N)=O)c2ccccc2)nc(N(C)C)c1C#N [Reference compound 1, reference compound]	
	4 (≈ 9.14 µM)	CCc1c(C#N)c(S[C@@H](C(N)=O)c2ccc(OC)cc2)nc(N2CC[C@H](O)C2)c1C#N [Reference compound 4, reference compound]	IC50 [3]: 79 nM; bioavailability ([5]; non-fasted male Sprague-Dawley rats, n=2/dose route): 6.1%
